Assay [1] addresses T1, PdeA (Caulobacter vibrioides, UniProt A0A0H3CDG5).
T1 sequence (A0A0H3CDG5 1-555): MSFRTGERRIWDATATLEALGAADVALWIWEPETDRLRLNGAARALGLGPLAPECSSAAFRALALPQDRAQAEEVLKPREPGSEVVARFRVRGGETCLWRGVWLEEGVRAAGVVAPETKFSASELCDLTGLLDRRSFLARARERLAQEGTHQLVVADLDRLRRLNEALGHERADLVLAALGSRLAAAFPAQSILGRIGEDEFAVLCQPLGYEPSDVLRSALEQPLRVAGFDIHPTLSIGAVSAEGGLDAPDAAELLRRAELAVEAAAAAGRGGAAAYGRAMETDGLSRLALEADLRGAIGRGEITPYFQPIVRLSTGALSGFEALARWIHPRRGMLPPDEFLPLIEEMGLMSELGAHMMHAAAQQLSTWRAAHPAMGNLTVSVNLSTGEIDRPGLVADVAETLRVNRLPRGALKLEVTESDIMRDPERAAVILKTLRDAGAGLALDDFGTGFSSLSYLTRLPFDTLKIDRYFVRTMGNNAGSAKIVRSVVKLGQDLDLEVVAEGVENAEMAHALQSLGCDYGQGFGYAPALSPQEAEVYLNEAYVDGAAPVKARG
In words: activation of purified PdeA phosphodiesterase, c-di-GMP turnover read with cdGreen2, GTP dose-response. It counts as biochemical.

Assay [2] addresses T1, PdeA. In words: purified phosphodiesterase turnover of c-di-GMP read with cdGreen2. It counts as biochemical.

SMILES strings stand for the structures.

As to `Nc1nc2c(ncn2[C@@H]2O[C@H](COP(=O)(O)OP(=O)(O)OP(=O)(O)O)[C@@H](O)[C@H]2O)c(=O)[nH]1` [GTP], on PdeA [1], the Kd (usually the constant that tells how readily two partners part at equilibrium) was about 3.4 µM.

In the case of `Nc1nc2c(ncn2[C@@H]2O[C@@H]3COP(=O)(O)O[C@H]4[C@@H](O)[C@H](n5cnc6c(=O)[nH]c(N)nc65)O[C@@H]4COP(=O)(O)O[C@H]3[C@H]2O)c(=O)[nH]1` [c-di-GMP], the “purified phosphodiesterase turnover of c-di-GMP read with cdGreen2” value at PdeA [2] is on record as “purified cdGreen2 also accurately monitored the breakdown of c-di-GMP by all PDEs tested”.

For the origin of these results see PMC11082216, “A genetically encoded biosensor to monitor dynamic changes of c-di-GMP with high temporal resolution” (Nature Communications, 2024).
